Experiments:
[1] = tested on: normal NK cells expanded with K562-aAPC; assay: drug sensitivity score (DSS) (DSS units); higher = more sensitive; extreme values may be limits of the assay; details: 72 h; IL-2 2.5 ng/mL
Procedure: (§1)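 Drug sensitivity and resistance testing on K562-aAPC-expanded normal NK cells: 5 concentrations (10-fold steps over a 10,000-fold range), 72 h at 37 °C, viability by CellTiter-Glo normalised to DMSO and benzethonium chloride controls; DSS from the fitted curve.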

[2] = tested on: normal NK cells expanded with K562-aAPC; assay: percent inhibition of viability; higher = more inhibition; details: 72 h, IL-2 2.5 ng/mL
Procedure: as §1

[3] = tested on: KHYG-1 (IL-2 2.5 ng/mL); assay: drug sensitivity score (DSS) (DSS units); higher = more sensitive; extreme values may be limits of the assay; details: 72 h
[4] = tested on: YT (IL-2 2.5 ng/mL); assay: as above; details: 72 h
[5] = tested on: NK-92 (IL-2 2.5 ng/mL); assay: as above; details: 72 h
[6] = tested on: NK-YS (IL-2 2.5 ng/mL); assay: as above; details: 72 h
[7] = tested on: IMC-1 (IL-2 20 ng/mL); assay: as above; details: 72 h
[8] = tested on: normal primary NK cells, pool 2 (3 donors) (IL-2 2.5 ng/mL); assay: as above; details: 72 h
[9] = tested on: KAI3 (IL-2 2.5 ng/mL); assay: as above; details: 72 h
[10] = tested on: DERL-7 (IL-2 2.5 ng/mL); assay: as above; details: 72 h
[11] = tested on: normal primary NK cells, pool 1 (3 donors) (IL-2 2.5 ng/mL); assay: as above; details: 72 h
[12] = tested on: normal primary NK cells, pool 1 (3 donors), resting (IL-2 0 ng/mL); assay: as above; details: 72 h
[13] = tested on: NKL (IL-2 2.5 ng/mL); assay: as above; details: 72 h
[14] = tested on: normal primary NK cells, pool 3 (3 donors) (IL-2 2.5 ng/mL); assay: as above; details: 72 h
[15] = tested on: SNK-6 (IL-2 2.5 ng/mL); assay: as above; details: 72 h
[16] = tested on: KHYG-1 (IL-2 2.5 ng/mL); assay: percent inhibition of viability; higher = more inhibition; details: 72 h
[17] = tested on: YT (IL-2 2.5 ng/mL); assay: as above; details: 72 h
[18] = tested on: NK-92 (IL-2 2.5 ng/mL); assay: as above; details: 72 h
[19] = tested on: NK-YS (IL-2 2.5 ng/mL); assay: as above; details: 72 h
[20] = tested on: IMC-1 (IL-2 20 ng/mL); assay: as above; details: 72 h
[21] = tested on: normal primary NK cells, pool 2 (3 donors) (IL-2 2.5 ng/mL); assay: as above; details: 72 h
[22] = tested on: KAI3 (IL-2 2.5 ng/mL); assay: as above; details: 72 h
[23] = tested on: DERL-7 (IL-2 2.5 ng/mL); assay: as above; details: 72 h
[24] = tested on: normal primary NK cells, pool 1 (3 donors) (IL-2 2.5 ng/mL); assay: as above; details: 72 h
[25] = tested on: normal primary NK cells, pool 1 (3 donors), resting (IL-2 0 ng/mL); assay: as above; details: 72 h
[26] = tested on: NKL (IL-2 2.5 ng/mL); assay: as above; details: 72 h
[27] = tested on: normal primary NK cells, pool 3 (3 donors) (IL-2 2.5 ng/mL); assay: as above; details: 72 h
[28] = tested on: SNK-6 (IL-2 2.5 ng/mL); assay: as above; details: 72 h

COc1ccc(-c2nc(N3CCOCC3)c3sc(CN(C)c4ncc(C(=O)NO)cn4)cc3n2)cn1 [CUDC-907] (max concentration tested 10000 nM)
Details | drug sensitivity score
[1] | 37.1
[3] | 44.4
[4] | 34.6
[5] | 42.9
[6] | 37.1
[7] | 35.3
[8] | 37.7
[9] | 43.4
[10] | 46.5
[11] | 38
[12] | 38.4
[13] | 43.8
[14] | 36.7
[15] | 37.9

percent inhibition of viability [%]
Details | 1 nM | 10 nM | 100 nM | 1000 nM | 10000 nM
[2] | 10.6 | 55.4 | 100 | 99.9 | 99.9
[16] | 16.1 | 94.5 | 103 | 103 | 98.7
[17] | 5.94 | 27.4 | 103 | 104 | 99.1
[18] | 23.2 | 83.5 | 102 | 103 | 97
[19] | 6.56 | 55.9 | 101 | 103 | 99
[20] | -4.89 | 34.3 | 100 | 101 | 100
[21] | 1.42 | 74.2 | 94.2 | 94 | 94.8
[22] | 52.6 | 75.5 | 102 | 104 | 98.9
[23] | 23.5 | 99.7 | 100 | 100 | 99.7
[24] | 2.74 | 68.2 | 96.4 | 97.7 | 97.2
[25] | 15.9 | 72.7 | 90.1 | 91 | 91.7
[26] | 56.5 | 77 | 103 | 104 | 99.2
[27] | -5.77 | 56.8 | 97.2 | 96.7 | 98.1
[28] | 0.83 | 63.5 | 99.8 | 100 | 100

COc1ccc(COc2cc3oc(=O)c4cc(C(C)O)ccc4c3cc2OC)cc1 (stereo not given) [Palomid-529] (max concentration tested 10000 nM)
Details | drug sensitivity score
[1] | 0
[3] | 4.78
[4] | 4.52
[5] | 8.66
[6] | 3.86
[7] | 0
[8] | 0
[9] | 3.78
[10] | 0.82
[11] | 0
[12] | 0
[13] | 5.94
[14] | 0
[15] | 0

percent inhibition of viability [%]
Details | 1 nM | 10 nM | 100 nM | 1000 nM | 10000 nM
[2] | -9.29 | -6.42 | -4.58 | 4.67 | 5.9
[16] | 1.15 | -4.29 | -3.13 | 9.18 | 59.6
[17] | -2.49 | -9.33 | -3.82 | 12.3 | 49.4
[18] | -6.63 | -14.2 | 2.8 | 30.5 | 83.4
[19] | -3.04 | -9.05 | -5.45 | 9.61 | 44.8
[20] | -5.32 | -4.51 | 2.75 | 4.92 | 7.18
[21] | -5.4 | -5.23 | -8.91 | -7.52 | 4.06
[22] | -1.34 | 0.71 | -2.91 | 8.03 | 46.9
[23] | -6.43 | -4.11 | -0.12 | 1.25 | 21.1
[24] | -7.97 | -4.09 | 6.27 | 8.93 | 4.45
[25] | -31.1 | -17.8 | -2.41 | -12.2 | 10.7
[26] | -6.62 | -2.59 | 6.05 | 30.5 | 33.3
[27] | -14.4 | -4.43 | 2.41 | -2.08 | 5.65
[28] | -15.9 | -23.8 | -10.8 | 8.45 | 5.08

O=NN(CCCl)C(=O)NC1CCCCC1 [Lomustine] (max concentration tested 10000 nM)
Details | drug sensitivity score
[1] | 0
[3] | 0
[4] | 0
[5] | 0
[6] | 0
[7] | 0
[8] | 0
[9] | 0
[10] | 0
[11] | 0
[12] | 0
[13] | 0
[14] | 0
[15] | 0

percent inhibition of viability [%]
Details | 1 nM | 10 nM | 100 nM | 1000 nM | 10000 nM
[2] | -0.77 | -4.05 | -3.71 | -4.93 | -6.08
[16] | -7.65 | -1.52 | -3.58 | -1.68 | 0.4
[17] | -3.7 | -2.05 | -4.42 | -2.81 | 0.06
[18] | -9.96 | -19 | -9.06 | -13.7 | -15.8
[19] | -6.33 | -2.26 | -1.76 | 0.49 | 4.09
[20] | -5.94 | -3.37 | -4.39 | -5.66 | -4.09
[21] | -12.4 | -5.7 | -9.1 | -11.4 | -2.45
[22] | -9.82 | 0.25 | -6.64 | -4.27 | -3.54
[23] | -0.56 | -0.17 | -2.85 | -3.2 | -5.37
[24] | -1.98 | -5.39 | -3.98 | -5.42 | -0.06
[25] | -9.1 | -11.4 | -22.4 | 13.4 | 3.51
[26] | -15 | -16.4 | -19.5 | -23.3 | -24.5
[27] | -11.8 | -8.98 | -8.45 | -6.32 | -4.26
[28] | 10.8 | 20.4 | -2.23 | 6.58 | -11

COc1cc2c(Oc3ccc(NC(=O)C4(C(=O)Nc5ccc(F)cc5)CC4)cc3F)ccnc2cc1OCCCN1CCOCC1 [Foretinib] (max concentration tested 1000 nM)
Details | drug sensitivity score
[1] | 5.37
[3] | 5.21
[4] | 3.73
[5] | 4.04
[6] | 5.79
[7] | 1.64
[8] | 0
[9] | 2.98
[10] | 3.35
[11] | 1.19
[12] | 4.1
[13] | 5
[14] | 0.32
[15] | 2.27

percent inhibition of viability [%]
Details | 0.1 nM | 1 nM | 10 nM | 100 nM | 1000 nM
[2] | -5.4 | -5.19 | -3.74 | 12.6 | 61
[16] | 1.36 | -8.14 | -3.69 | 18.4 | 49.9
[17] | -1.93 | -8.62 | -2.43 | 13.9 | 37.3
[18] | -17.3 | -12.3 | -5.79 | 19.9 | 34.9
[19] | -1.72 | -7.82 | -1.95 | 11.5 | 70.2
[20] | -6.29 | -10.2 | -1.31 | 3.45 | 27.1
[21] | -11.2 | -4.47 | 3.97 | -2.36 | -2.41
[22] | 3.99 | -0.1 | 0.67 | 11.6 | 31.7
[23] | 3.24 | -0.68 | 2.22 | -8.07 | 70.8
[24] | 3.18 | -0.67 | 9.57 | 11.1 | 15.9
[25] | -4.45 | 1.67 | 17.2 | 10.1 | 18.4
[26] | -12.1 | -16.5 | -5.45 | 16.3 | 49.9
[27] | -8.78 | -7.33 | 8.91 | 6.17 | 10.7
[28] | -1.08 | -15.3 | -7.01 | -4.86 | 49.9

CO[C@@]12[C@H](COC(N)=O)C3=C(C(=O)C(C)=C(N)C3=O)N1C[C@@H]1N[C@@H]12 [Mitomycin C] (max concentration tested 10000 nM)
Details | drug sensitivity score
[1] | 1.99
[3] | 16.3
[4] | 4.01
[5] | 9.13
[6] | 17.2
[7] | 6.29
[8] | 10.3
[9] | 9.91
[10] | 0
[11] | 2.74
[12] | 6.45
[13] | 21.9
[14] | 9.16
[15] | 14.8

percent inhibition of viability [%]
Details | 1 nM | 10 nM | 100 nM | 1000 nM | 10000 nM
[2] | -6.75 | -6.89 | -6.31 | 1.66 | 36.7
[16] | -11.3 | -10.2 | -3.76 | 90.6 | 106
[17] | -7.65 | -5.91 | -4.19 | -0.39 | 73.2
[18] | -6.49 | -1.15 | -5.66 | 25.2 | 96
[19] | -3.94 | -3.78 | 7.6 | 89.1 | 101
[20] | -2.35 | 2.42 | 2.75 | 5.66 | 98.4
[21] | -2.16 | 4.57 | 8.07 | 44.3 | 91.9
[22] | -6 | 1.39 | 6.47 | 42.2 | 90.1
[23] | -3.54 | 4.32 | -0.35 | -4.88 | 11.3
[24] | -7.25 | 13.3 | 6.96 | 7.9 | 35
[25] | 3.33 | 21.6 | 12.1 | 19.2 | 72.1
[26] | -16.1 | -7.78 | 25.9 | 99.1 | 99.9
[27] | -2.62 | 8.35 | 8.1 | 31.6 | 94.6
[28] | 8 | -22.7 | -15.3 | 85.5 | 90

From the supplement of paper PMC5908809
